Measured values from patent US11066396B2 (priority 2016, dated 2021).

Experiments:
HDAC8 = HDAC8 (Homo sapiens (Human), UniProt Q9BY41); conditions: read-out: HDAC8 IC50
HDAC1 = HDAC1 (Homo sapiens (Human), UniProt Q13547); conditions: read-out: HDAC1 IC50
HDAC1, sequence (Q13547 whole entry): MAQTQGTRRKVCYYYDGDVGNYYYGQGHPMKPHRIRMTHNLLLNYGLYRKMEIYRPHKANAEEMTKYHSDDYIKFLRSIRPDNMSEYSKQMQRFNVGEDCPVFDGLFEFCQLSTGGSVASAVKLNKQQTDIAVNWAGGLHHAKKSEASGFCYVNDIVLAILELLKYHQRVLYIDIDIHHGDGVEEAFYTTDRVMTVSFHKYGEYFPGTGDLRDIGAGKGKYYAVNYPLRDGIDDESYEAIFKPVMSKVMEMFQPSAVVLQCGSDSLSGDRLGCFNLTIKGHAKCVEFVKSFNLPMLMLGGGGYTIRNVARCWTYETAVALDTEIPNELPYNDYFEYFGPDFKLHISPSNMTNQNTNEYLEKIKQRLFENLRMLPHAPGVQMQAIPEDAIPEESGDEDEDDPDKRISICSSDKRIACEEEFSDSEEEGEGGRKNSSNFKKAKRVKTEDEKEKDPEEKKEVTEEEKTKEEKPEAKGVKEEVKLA
Method: Assay protocol: In brief, compounds were titrated in 100% DMSO via accoustic dispensing directly to the assay plate using the ECHO 550 [Labcyte]. HDAC enzymes at the concentrations indicated above were added in assay buffer to the assay plates containing the compounds using a Combi [Thermo Scientific]. The wells were mixed, and the plates were allowed to pre-incubate at ambient temperature for 3 h. After the 3 h, the appropriate substrate, at the concentrations indicated above, was added to the wells using a Combi. The wells were mixed, and the plates were allowed to incubate at ambient temperature for 1 h. After the 1 h, the appropriate Developer/stop solution was added to the wells using a Combi. The wells were mixed, and the plates were allowed to incubate at ambient temperature for 1 h. […] Data were analyzed using 4P curve fitting with Activity Base [IDBS] software.

HDAC8, sequence (Q9BY41 whole entry): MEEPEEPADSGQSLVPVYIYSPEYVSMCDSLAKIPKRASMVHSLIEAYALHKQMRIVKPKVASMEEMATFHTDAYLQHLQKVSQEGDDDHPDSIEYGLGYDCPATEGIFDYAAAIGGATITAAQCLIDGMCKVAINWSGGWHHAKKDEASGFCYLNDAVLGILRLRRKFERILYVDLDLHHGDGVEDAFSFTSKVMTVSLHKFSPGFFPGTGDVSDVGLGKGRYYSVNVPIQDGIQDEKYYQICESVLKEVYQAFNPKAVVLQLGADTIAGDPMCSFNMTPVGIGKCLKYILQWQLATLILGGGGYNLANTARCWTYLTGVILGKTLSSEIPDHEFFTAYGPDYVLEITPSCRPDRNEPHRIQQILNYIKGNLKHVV

| SMILES | IC50 (HDAC8) [nM] | IC50 (HDAC1) [nM] |
| --- | --- | --- |
| Cn1ccc(NCc2ccc(-c3noc(C(F)(F)F)n3)cn2)cc1=O [Example 358, 1-methyl-4-[({5-[5-(trifluoromethyl)-1,2,4-oxadiazol-3-yl]pyridin-2-yl}methyl)amino]pyridin-2(1H)-one] | 2400 | 890 |
| O=C1CCC(c2ccc(-c3noc(C(F)(F)F)n3)cc2)N1c1ccccc1F (stereo not shown) [Example 329] | 7900 | 3900 |
| O=C1CC[C@@H](c2nc(-c3ccncc3)no2)N1c1ccc(-c2noc(C(F)(F)F)n2)cc1 [Example 114, (S)-5-(3-(pyridin-4-yl)-1,2,4-oxadiazol-5-yl)-1-(4-(5-(trifluoromethyl)-1,2,4-oxadiazol-3-yl)phenyl)pyrrolidin-2-one] | 270 | 82 |
| OCc1ccnc(NCc2ccc(-c3noc(C(F)(F)F)n3)cn2)c1 [Example 367, {2-[({5-[5-(trifluoromethyl)-1,2,4-oxadiazol-3-yl]pyridin-2-yl}methyl)amino]pyridin-4-yl}methanol] | 870 | 820 |
| FC(F)(F)c1nc(-c2ccc(CNC3CCc4ncccc4C3)nc2)no1 (racemic) [Example 371, N-({5-[5-(trifluoromethyl)-1,2,4-oxadiazol-3-yl]pyridin-2-yl}methyl)-5,6,7,8-tetrahydroquinolin-6-amine] | 1600 | 450 |
| Cc1nc(C)n(CC(=O)N(Cc2ccc(-c3noc(C(F)(F)F)n3)cc2)c2cccc(C(F)(F)F)c2)n1 [Example 77, 2-(3,5-dimethyl-1H-1,2,4-triazol-1-yl)-N-(4-(5-(trifluoromethyl)-1,2,4-oxadiazol-3-yl)benzyl)-N-(3-(trifluoromethyl)phenyl)acetamide] | 3300 | 1400 |
| Fc1ccc(C2COCCN2c2ccc(-c3noc(C(F)(F)F)n3)cn2)cc1 (racemic) [Example 142, 3-(4-fluorophenyl)-4-(5-(5-(trifluoromethyl)-1,2,4-oxadiazol-3-yl)pyridin-2-yl)morpholine] | 1900 | 500 |
| O=C(CCCn1cncn1)N(Cc1ccc(-c2noc(C(F)(F)F)n2)cc1)c1cccc(C(F)(F)F)c1 [Example 72, 4-(1H-1,2,4-triazol-1-yl)-N-(4-(5-(trifluoromethyl)-1,2,4-oxadiazol-3-yl)benzyl)-N-(3-(trifluoromethyl)phenyl)butanamide] | 2000 | 1900 |
| Cc1nccn1C(C)C(=O)N(Cc1ccc(-c2noc(C(F)(F)F)n2)cn1)c1cccc(F)c1 (racemic) [Example 390, N-(3-fluorophenyl)-2-(2-methyl-1H-imidazol-1-yl)-N-({5-[5-(trifluoromethyl)-1,2,4-oxadiazol-3-yl]pyridin-2-yl}methyl)propanamide] | 1700 | 430 |
| CN(C)C(=O)c1cccc(NCc2ccc(-c3noc(C(F)(F)F)n3)cn2)c1 [Example 438, N,N-dimethyl-3-[({5-[5-(trifluoromethyl)-1,2,4-oxadiazol-3-yl]pyridin-2-yl}methyl)amino]benzamide] | 1000 | 520 |
| O=C(Cc1cnccn1)N(Cc1ccc(-c2noc(C(F)(F)F)n2)cc1)c1cccc(C(F)(F)F)c1 [Example 94, 2-(pyrazin-2-yl)-N-(4-(5-(trifluoromethyl)-1,2,4-oxadiazol-3-yl)benzyl)-N-(3-(trifluoromethyl)phenyl)acetamide] | 2300 | 1400 |
| FC(F)(F)c1nc(-c2ccc(CNc3cc4ccccn4n3)nc2)no1 [Example 365, N-({5-[5-(trifluoromethyl)-1,2,4-oxadiazol-3-yl]pyridin-2-yl}methyl)pyrazolo[1,5-a]pyridin-2-amine] | 1800 | 1200 |
| O=C1CCc2cccnc2N1Cc1ccc(-c2noc(C(F)(F)F)n2)cn1 [Example 330, 1-({5-[5-(trifluoromethyl)-1,2,4-oxadiazol-3-yl]pyridin-2-yl}methyl)-3,4-dihydro-1,8-naphthyridin-2(1H)-one] | 18000 | 3700 |
| CCN1CCCC(C(=O)N(Cc2ccc(-c3noc(C(F)(F)F)n3)cn2)c2cccc(F)c2)C1 (racemic) [Example 57, 1-ethyl-N-(3-fluorophenyl)-N-((5-(5-(trifluoromethyl)-1,2,4-oxadiazol-3-yl)pyridin-2-yl)methyl)piperidine-3-carboxamide] | 2000 | 240 |
| O=C([C@@H]1CCC(=O)N1c1cc(F)c(-c2noc(C(F)(F)F)n2)cc1F)N1CCCC1 [Example 336, (5S)-1-{2,5-difluoro-4-[5-(trifluoromethyl)-1,2,4-oxadiazol-3-yl]phenyl}-5-(pyrrolidin-1-ylcarbonyl)pyrrolidin-2-one] | 26000 | 10000 |
| Cc1noc([C@@H]2CCC(=O)N2c2ccc(-c3noc(C(F)(F)F)n3)cc2F)n1 [Example 123, (S)-1-(2-fluoro-4-(5-(trifluoromethyl)-1,2,4-oxadiazol-3-yl)phenyl)-5-(3-methyl-1,2,4-oxadiazol-5-yl)pyrrolidin-2-one] | 5200 | 1000 |

| SMILES | IC50 (HDAC8) [nM] | IC50 (HDAC1) [nM] |
| --- | --- | --- |
| O=C(C1CCCS(=O)(=O)C1)N(Cc1ccc(-c2noc(C(F)(F)F)n2)cn1)c1cccc(F)c1 (racemic) [Example 405, N-(3-fluorophenyl)-N-({5-[5-(trifluoromethyl)-1,2,4-oxadiazol-3-yl]pyridin-2-yl}methyl)tetrahydro-2H-thiopyran-3-carboxamide 1,1-dioxide] | 1600 | 220 |
| COC(=O)N1CC(=O)N(Cc2ccc(-c3noc(C(F)(F)F)n3)cn2)c2ccccc21 [Example 472, methyl 3-oxo-4-({5-[5-(trifluoromethyl)-1,2,4-oxadiazol-3-yl]pyridin-2-yl}methyl)-3,4-dihydroquinoxaline-1(2H)-carboxylate] | 1400 | 320 |
| O=C(Cn1ccnn1)N(Cc1ccc(-c2noc(C(F)(F)F)n2)cc1)c1cccc(C(F)(F)F)c1 [Example 76, 2-(1H-1,2,3-triazol-1-yl)-N-(4-(5-(trifluoromethyl)-1,2,4-oxadiazol-3-yl)benzyl)-N-(3-(trifluoromethyl)phenyl)acetamide] | 2100 | 1000 |
| FC(F)(F)c1nc(-c2ccc(CNc3ncccn3)cc2)no1 [Example 386, N-{4-[5-(trifluoromethyl)-1,2,4-oxadiazol-3-yl]benzyl}pyrimidin-2-amine] | 3900 | 5300 |
| NC(=O)c1cccc(NCc2ccc(-c3noc(C(F)(F)F)n3)cn2)c1 [Example 449, 3-[({5-[5-(trifluoromethyl)-1,2,4-oxadiazol-3-yl]pyridin-2-yl}methyl)amino]benzamide] | 1900 | 310 |
| Cn1c([C@@H]2CCC(=O)N2c2ccc(-c3noc(C(F)(F)F)n3)cc2F)nc2ccccc21 [Example 107, (S)-1-(2-fluoro-4-(5-(trifluoromethyl)-1,2,4-oxadiazol-3-yl)phenyl)-5-(1-methyl-1H-benzo[d]imidazol-2-yl)pyrrolidin-2-one] | 2200 | 300 |
| OCc1cc(NCc2ccc(-c3noc(C(F)(F)F)n3)cn2)ccc1F [Example 361, {2-fluoro-5-[({5-[5-(trifluoromethyl)-1,2,4-oxadiazol-3-yl]pyridin-2-yl}methyl)amino]phenyl}methanol] | 1600 | 520 |
| O=C(CC1CCS(=O)(=O)C1)N(Cc1ccc(-c2noc(C(F)(F)F)n2)cn1)c1cccc(F)c1 (racemic) [Example 398, 2-(1,1-dioxidotetrahydrothiophen-3-yl)-N-(3-fluorophenyl)-N-({5-[5-(trifluoromethyl)-1,2,4-oxadiazol-3-yl]pyridin-2-yl}methyl)acetamide] | 2300 | 410 |
| O=C1NCCc2ccccc2C1NCc1ccc(-c2noc(C(F)(F)F)n2)cn1 (racemic) [Example 373, 1-[({5-[5-(trifluoromethyl)-1,2,4-oxadiazol-3-yl]pyridin-2-yl}methyl)amino]-1,3,4,5-tetrahydro-2H-3-benzazepin-2-one] | 2800 | 1300 |
| O=C1CCC(c2ccccc2)N1c1ccc(-c2noc(C(F)(F)F)n2)cc1 (stereo not shown) [Example 115, 5-phenyl-1-(4-(5-(trifluoromethyl)-1,2,4-oxadiazol-3-yl)phenyl)pyrrolidin-2-one] | 920 | 1000 |
| CC1(Cc2ccc(-c3noc(C(F)(F)F)n3)cc2)C(=O)Nc2ccc(F)cc21 (racemic) [Example 346, 5-fluoro-3-methyl-3-{4-[5-(trifluoromethyl)-1,2,4-oxadiazol-3-yl]benzyl}-1,3-dihydro-2H-indol-2-one] | 15000 | 1200 |
| O=c1ccc2ccc(Br)cc2n1Cc1ccc(-c2noc(C(F)(F)F)n2)cc1 [Example 321, 7-bromo-1-{4-[5-(trifluoromethyl)-1,2,4-oxadiazol-3-yl]benzyl}quinolin-2(1H)-one] | 2600 | 210 |
| Cc1n[nH]c2c1CC(NCc1ccc(-c3noc(C(F)(F)F)n3)cn1)CC2 (racemic) [Example 372, 3-methyl-N-({5-[5-(trifluoromethyl)-1,2,4-oxadiazol-3-yl]pyridin-2-yl}methyl)-4,5,6,7-tetrahydro-1H-indazol-5-amine] | 2900 | 400 |
| O=C1CCC(c2cccc(Cl)c2)N1c1ccc(-c2noc(C(F)(F)F)n2)cc1F (racemic) [Example 116, 5-(3-chlorophenyl)-1-(2-fluoro-4-(5-(trifluoromethyl)-1,2,4-oxadiazol-3-yl)phenyl)pyrrolidin-2-one] | 14000 | 1600 |
| FC(F)(F)c1nc(-c2ccc(CNC3CCN(c4ncccn4)C3)cc2)no1 (racemic) [Example 354, 1-(pyrimidin-2-yl)-N-({4-[5-(trifluoromethyl)-1,2,4-oxadiazol-3-yl]phenyl}methyl)pyrrolidin-3-amine] | 680 | 1600 |
| CC(C)(C(=O)N(Cc1ccc(-c2noc(C(F)(F)F)n2)cn1)c1cccc(F)c1)n1cncn1 [Example 392, N-(3-fluorophenyl)-2-methyl-2-(1H-1,2,4-triazol-1-yl)-N-({5-[5-(trifluoromethyl)-1,2,4-oxadiazol-3-yl]pyridin-2-yl}methyl)propanamide] | 3100 | 480 |
